Data: ChEMBL document CHEMBL3621058, “Synthesis and structure-activity studies of the V-ATPase inhibitor saliphenylhalamide (SaliPhe) and simplified analogs” (Bioorg Med Chem Lett, 2015)
Calls of active or inactive are those of the source. The calls are words filed in the database; no cut-off is given here.

Legend:
HCC4017 = test: Growth inhibition of human HCC4017 cells assessed as reduction in cell viability at 0.1 nM to 10 uM; assay type: functional
[1] = Inhibition of purified reconstituted bovine brain V-ATPase; set-up: species or system Bos taurus
Bos taurus = species: Bos taurus; test: Inhibition of purified reconstituted bovine brain V-ATPase at 2 uM
[2] = Inhibition of V-ATPase (unknown origin); set-up: species or system Homo sapiens

IC50 [1] [nM]	inhibition (Bos taurus)	SMILES	growth inhibition (GI) (HCC4017)	IC50 [2] [nM]
500	–	O=C(C#Cc1ccccc1)N/C=C/C[C@H]1C[C@@H](O)CC/C=C/Cc2cc(F)ccc2C(=O)O1	inactive	–
500	–	O=C(C#Cc1ccccc1)N/C=C/C[C@H]1C[C@@H](O)CC/C=C/Cc2cccc(C(F)F)c2C(=O)O1	inactive	–
–	inactive	O=C(C#Cc1ccccc1)N/C=C/C[C@H]1C[C@@H](O)CC/C=C/Cc2cc(O)ccc2C(=O)O1	inactive	–
1000	–	O=C(C#Cc1ccccc1)N/C=C/C[C@H]1C[C@@H](O)CC/C=C/Cc2cccc(F)c2C(=O)O1	inactive	–
300	–	O=C(C#Cc1ccccc1)N/C=C/C[C@H]1C[C@@H](O)CC/C=C/Cc2cc([N+](=O)[O-])ccc2C(=O)O1	inactive	–
300	–	Nc1cccc2c1C(=O)O[C@@H](C/C=C/NC(=O)C#Cc1ccccc1)C[C@@H](O)CC/C=C/C2	inactive	–

More lines, now with the values behind:

SMILES	IC50 [1] [nM]	inhibition (Bos taurus)	growth inhibition (GI) (HCC4017)	IC50 [2] [nM]
C[C@H]1C/C=C/Cc2cccc(O)c2C(=O)O[C@@H](C/C=C/NC(=O)C#Cc2ccccc2)C[C@H]1O [SALIPHENYLHALAMIDE]	1	–	Active	–
O=C(C#Cc1ccccc1)N/C=C/C[C@H]1C[C@@H](O)CC/C=C/Cc2cccc(O)c2C(=O)N1	3	–	Active	–
CC/C=C\C=C/C(=O)N/C=C/C[C@H]1C[C@@H](O)[C@@H](C)C/C=C/Cc2cccc(O)c2C(=O)O1 [SALICYLIHALAMIDE A]	–	–	–	< 1
O=C(C#Cc1ccccc1)N/C=C/C[C@H]1C[C@@H](O)CC/C=C/Cc2cccc([N+](=O)[O-])c2C(=O)O1	1000	–	inactive	–
O=C(C#Cc1ccccc1)N/C=C/C[C@H]1C[C@@H](O)CC/C=C/Cc2cccc(O)c2C(=O)O1	5	–	Active	–
